# Patent US8927717B1, “Thiochromeno[2,3-c]quinolin-12-one derivatives, preparation method and application thereof” (National Defense Medical Center, priority 2014, dated 2015)
# What was measured:
# MDA-MB-486 = format: cell-based; details: Breast cancer; 10^−5 molar; 48 hours; SRB
# HCT-116 = format: cell-based; details: Colon cancer; 10^−5 molar; 48 hours; SRB
# SW-620 = format: cell-based; details: Colon cancer; 10^−5 molar; 48 hours; SRB
# HL-60(TB) = format: cell-based; details: Leukemia; 10^−5 molar; 48 hours; SRB
# OVCAR-4 = format: cell-based; details: Ovarian cancer; 10^−5 molar; 48 hours; SRB
# BT-549 = format: cell-based; details: Breast cancer; 10^−5 molar; 48 hours; SRB
# NCI-H23 = format: cell-based; details: Non-small cell lung cancer; 10^−5 molar; 48 hours; SRB
# NCI/ADR-RES = format: cell-based; details: Ovarian cancer; 10^−5 molar; 48 hours; SRB
# HCT-15 = format: cell-based; details: Colon cancer; 10^−5 molar; 48 hours; SRB
# CAKI-1 = format: cell-based; details: Renal cancer; 10^−5 molar; 48 hours; SRB
# A498 = format: cell-based; details: Renal cancer; 10^−5 molar; 48 hours; SRB
# MCF7 = format: cell-based; details: Breast cancer; 10^−5 molar; 48 hours; SRB
# PC-3 = format: cell-based; details: Prostate cancer; 10^−5 molar; 48 hours; SRB
# CCRF-CEM = format: cell-based; details: Leukemia; 10^−5 molar; 48 hours; SRB
# NCI-H522 = format: cell-based; details: Non-small cell lung cancer; 10^−5 molar; 48 hours; SRB
# MOLT-4 = format: cell-based; details: Leukemia; 10^−5 molar; 48 hours; SRB
# SF-268 = format: cell-based; details: CNS cancer; 10^−5 molar; 48 hours; SRB
# SF-295 = format: cell-based; details: CNS cancer; 10^−5 molar; 48 hours; SRB
# SK-OV-3 = format: cell-based; details: Ovarian cancer; 10^−5 molar; 48 hours; SRB
# SF-539 = format: cell-based; details: CNS cancer; 10^−5 molar; 48 hours; SRB
# COLO 205 = format: cell-based; details: Colon cancer; 10^−5 molar; 48 hours; SRB
# DU-145 = format: cell-based; details: Prostate cancer; 10^−5 molar; 48 hours; SRB
# SN12C = format: cell-based; details: Renal cancer; 10^−5 molar; 48 hours; SRB
# SR = format: cell-based; details: Leukemia; 10^−5 molar; 48 hours; SRB
# M14 = format: cell-based; details: Melanoma; 10^−5 molar; 48 hours; SRB
# MALME-3M = format: cell-based; details: Melanoma; 10^−5 molar; 48 hours; SRB
# T-47D = format: cell-based; details: Breast cancer; 10^−5 molar; 48 hours; SRB
# OVCAR-8 = format: cell-based; details: Ovarian cancer; 10^−5 molar; 48 hours; SRB
# SK-MEL-5 = format: cell-based; details: Melanoma; 10^−5 molar; 48 hours; SRB
# MDA-MB-435 = format: cell-based; details: Melanoma; 10^−5 molar; 48 hours; SRB
# KM12 = assay: cells; format: cell-based; details: Colon cancer; 10^−5 molar; 48 hours; SRB
# A549/ATCC = format: cell-based; details: Non-small cell lung cancer; 10^−5 molar; 48 hours; SRB
# LOX IMVI = format: cell-based; details: Melanoma; 10^−5 molar; 48 hours; SRB
# UACC-62 = format: cell-based; details: Melanoma; 10^−5 molar; 48 hours; SRB
# RPMI-8226 = format: cell-based; details: Leukemia; 10^−5 molar; 48 hours; SRB
# NCI-H226 = format: cell-based; details: Non-small cell lung cancer; 10^−5 molar; 48 hours; SRB
# NCI-H460 = format: cell-based; details: Non-small cell lung cancer; 10^−5 molar; 48 hours; SRB
# MDA-MB-231/ATCC = format: cell-based; details: Breast cancer; 10^−5 molar; 48 hours; SRB
# HCC-2998 = format: cell-based; details: Colon cancer; 10^−5 molar; 48 hours; SRB
# OVCAR-5 = format: cell-based; details: Ovarian cancer; 10^−5 molar; 48 hours; SRB
# RXF 393 = format: cell-based; details: Renal cancer; 10^−5 molar; 48 hours; SRB
# SNB-19 = format: cell-based; details: CNS cancer; 10^−5 molar; 48 hours; SRB
# ACHN = format: cell-based; details: Renal cancer; 10^−5 molar; 48 hours; SRB
# U251 = format: cell-based; details: CNS cancer; 10^−5 molar; 48 hours; SRB
# HT29 = format: cell-based; details: Colon cancer; 10^−5 molar; 48 hours; SRB
# UO-31 = format: cell-based; details: Renal cancer; 10^−5 molar; 48 hours; SRB
# HS 578T = format: cell-based; details: Breast cancer; 10^−5 molar; 48 hours; SRB
# IGROV1 = format: cell-based; details: Ovarian cancer; 10^−5 molar; 48 hours; SRB
# 60 cancer cell lines = assay: NCI 60-cell screen, SRB, whole panel (mean, delta, range); format: cell-based; details: 10^−5 molar, 48 hours, SRB
# SNB-75 = format: cell-based; details: CNS cancer; 10^−5 molar; 48 hours; SRB
# 786-0 = format: cell-based; details: Renal cancer; 10^−5 molar; 48 hours; SRB
# K-562 = format: cell-based; details: Leukemia; 10^−5 molar; 48 hours; SRB
# SK-MEL-28 = format: cell-based; details: Melanoma; 10^−5 molar; 48 hours; SRB
# OVCAR-3 = format: cell-based; details: Ovarian cancer; 10^−5 molar; 48 hours; SRB
# HOP-62 = format: cell-based; details: Non-small cell lung cancer; 10^−5 molar; 48 hours; SRB
# UACC-257 = format: cell-based; details: Melanoma; 10^−5 molar; 48 hours; SRB
# TK-10 = format: cell-based; details: Renal cancer; 10^−5 molar; 48 hours; SRB
smiles,measurement,setting,value
"CCC(CO)Nc1nc2ccccc2c2c(=O)c3cc(Cl)ccc3sc12 (stereo not drawn) [Compound N12, 10-Chloro-6-((1-hydroxybutan-2-yl)amino)-12H-thiochromeno[2,3-c]quinolin-12-one]",Growth percent MDA-MB-486,MDA-MB-486,80.85%
same,Growth percent HCT-116,HCT-116,73.42%
same,Growth percent SW-620,SW-620,84.32%
same,Growth percent HL-60(TB),HL-60(TB),96.29%
same,Growth percent OVCAR-4,OVCAR-4,83.23%
same,Growth percent BT-549,BT-549,85.96%
same,Growth percent NCI-H23,NCI-H23,81.25%
same,Growth percent NCI/ADR-RES,NCI/ADR-RES,77.02%
same,Growth percent HCT-15,HCT-15,77.58%
same,Growth percent CAKI-1,CAKI-1,59.29%
same,melting point,,203 to 204 °C
same,Growth percent A498,A498,74.62%
same,Growth percent MCF7 (Table 2: MCF),MCF7,40.92%
same,Growth percent PC-3,PC-3,58.35%
same,Growth percent CCRF-CEM,CCRF-CEM,70.00%
same,Growth percent NCI-H522,NCI-H522,64.07%
same,Growth percent MOLT-4,MOLT-4,61.79%
same,Growth percent SF-268,SF-268,76.71%
same,Growth percent SF-295,SF-295,89.58%
same,Growth percent SK-OV-3,SK-OV-3,58.93%
same,Growth percent SF-539,SF-539,83.86%
same,Growth percent COLO 205,COLO 205,68.37%
same,Growth percent DU-145,DU-145,87.04%
same,Growth percent SN12C,SN12C,81.98%
same,Growth percent SR,SR,62.38%
same,Growth percent M14,M14,85.38%
same,Growth percent MALME-3M,MALME-3M,58.66%
same,Growth percent T-47D,T-47D,46.94%
same,Growth percent OVCAR-8,OVCAR-8,68.74%
same,Growth percent SK-MEL-5,SK-MEL-5,87.19%
same,Growth percent MDA-MB-435,MDA-MB-435,92.11%
same,Growth percent KM12,KM12,82.37%
same,Growth percent A549/ATCC,A549/ATCC,69.86%
same,Growth percent LOX IMVI,LOX IMVI,79.25%
same,Growth percent UACC-62,UACC-62,76.17%
same,Growth percent RPMI-8226,RPMI-8226,73.50%
same,Growth percent NCI-H226,NCI-H226,77.56%
same,Growth percent NCI-H460,NCI-H460,83.78%
same,Growth percent MDA-MB-231/ATCC,MDA-MB-231/ATCC,58.29%
same,Growth percent HCC-2998,HCC-2998,99.61%
same,Growth percent OVCAR-5,OVCAR-5,88.01%
same,Growth percent RXF 393,RXF 393,71.61%
same,Growth percent SNB-19,SNB-19,93.87%
same,Growth percent ACHN,ACHN,69.12%
same,Growth percent U251,U251,74.49%
same,Growth percent HT29,HT29,78.24%
same,Growth percent UO-31,UO-31,51.01%
same,Growth percent HS 578T,HS 578T,52.66%
same,Growth percent IGROV1,IGROV1,66.54%
same,"Growth percent, Delta",60 cancer cell lines; delta over the cell panel,42.51%
same,"Growth percent, Mean",60 cancer cell lines; mean over the cell panel,73.52%
same,"Growth percent, Range",60 cancer cell lines; range over the cell panel,68.60%
same,Growth percent SNB-75,SNB-75,31.01%
same,Growth percent 786-0,786-0,82.86%
same,Growth percent K-562,K-562,46.86%
same,Growth percent SK-MEL-28,SK-MEL-28,82.86%
same,Growth percent OVCAR-3,OVCAR-3,96.34%
same,Growth percent HOP-62,HOP-62,55.91%
same,Growth percent UACC-257,UACC-257,95.71%
same,Growth percent TK-10,TK-10,77.45%
